These results are taken from PubChem BioAssay (NCI).

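Assay format: 96-well plates, 48-hour exposure. TGI: total growth inhibition.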 A value given as a limit tells only on which side of the number the result lay.

Among the test systems are 786-0 renal; KM12 colon; OVCAR-3 ovarian; K-562 leukemia; MCF7 breast; NCI-H23 lung; M14 melanoma; MDA-N; T-47D breast; NCI-H460 lung; RPMI-8226 leukemia.
Holding throughout (test): NCI anticancer screen, dose series, 48 h

Take `Cc1c2c(c(C)c3c[n+](C)ccc13)Oc1ccccc1O2`: the TGI with 786-0 renal was more than 100 µM; in the experiment with KM12 colon, 6.42 µM; with OVCAR-3 ovarian, 17.5 µM; in the experiment on K-562 leukemia, 35.4 µM; in the experiment on MCF7 breast it was more than 63 µM; in the experiment on NCI-H23 lung, 40.4 µM. The TGI was more than 59.7 µM in the experiment on M14 melanoma; 53.5 µM in the experiment on MDA-N; 25.7 µM with T-47D breast; 16.4 µM with NCI-H460 lung; 12.7 µM in the experiment on RPMI-8226 leukemia.
On to `NS(=O)(=O)c1nnc(NC(=O)CCC(=O)O)s1`, for which the TGI with 786-0 renal, with KM12 colon, with OVCAR-3 ovarian, in the experiment on K-562 leukemia, in the experiment on MCF7 breast and in the experiment on NCI-H23 lung was more than 100 µM in each case. For the same compound, the TGI in the experiment on M14 melanoma, with MDA-N, in the experiment on T-47D breast, in the experiment with NCI-H460 lung and with RPMI-8226 leukemia was more than 100 µM each time.
As to `C=CCN1CCC(OC(=O)C(O)(/C=C\CC)C2CCCC2)CC1` (stereo not given), the TGI with 786-0 renal, in the experiment with OVCAR-3 ovarian, in the experiment with K-562 leukemia, in the experiment on MCF7 breast, in the experiment with NCI-H23 lung and with M14 melanoma was more than 100 µM throughout. Besides, the TGI in the experiment on MDA-N, in the experiment on T-47D breast and in the experiment on RPMI-8226 leukemia was more than 100 µM throughout.
As for `COc1ccc2c(c1)/C(=C(\C(Cl)=C(Cl)Cl)[N+](=O)[O-])N2`, the TGI in the experiment on 786-0 renal, in the experiment with KM12 colon, in the experiment with OVCAR-3 ovarian, in the experiment with K-562 leukemia, in the experiment on MCF7 breast and in the experiment on NCI-H23 lung was more than 100 µM each time. Besides, the TGI in the experiment with M14 melanoma, in the experiment with MDA-N, in the experiment with T-47D breast and in the experiment on NCI-H460 lung was more than 100 µM each time.
Take `C1CNCCN2CCCNCCN(C1)CC2`: the TGI with 786-0 renal, in the experiment with KM12 colon, in the experiment with OVCAR-3 ovarian, in the experiment with MCF7 breast, in the experiment with NCI-H23 lung and in the experiment with M14 melanoma was more than 100 µM throughout. Besides, the TGI with MDA-N, with T-47D breast, in the experiment on NCI-H460 lung and in the experiment with RPMI-8226 leukemia was more than 100 µM in each case.
Take `COc1ccc(C2CCc3nc4nc(N)nc(N)c4cc3C2)cc1` (stereo not given): the TGI is 17 µM in the experiment with 786-0 renal; more than 100 µM with KM12 colon; 43.9 µM in the experiment with OVCAR-3 ovarian; more than 100 µM with K-562 leukemia; 28.8 µM with MCF7 breast; more than 100 µM in the experiment on M14 melanoma. Moreover, the TGI is more than 100 µM in the experiment on MDA-N, 44.7 µM with T-47D breast, more than 100 µM with NCI-H460 lung and more than 100 µM in the experiment with RPMI-8226 leukemia.
In the case of `CCOC(=O)C(Cc1ccc2c(c1)CCC2)(Cc1ccc2c(c1)CCC2)C(=O)OCC`, the TGI in the experiment on 786-0 renal, in the experiment on OVCAR-3 ovarian, in the experiment with K-562 leukemia, in the experiment with MCF7 breast, with NCI-H23 lung and with M14 melanoma was more than 100 µM in each case. Besides, the TGI in the experiment with MDA-N, in the experiment with T-47D breast, with NCI-H460 lung and in the experiment with RPMI-8226 leukemia was more than 100 µM in each case.
In the case of `COc1ccc2nc(-c3ccc(OC(=O)N(C)C)cc3)cn2c1`, the TGI with 786-0 renal, in the experiment on KM12 colon, in the experiment on OVCAR-3 ovarian, with K-562 leukemia, in the experiment on MCF7 breast and in the experiment with NCI-H23 lung was more than 100 µM in each case. Further, the TGI in the experiment on M14 melanoma, in the experiment with MDA-N, in the experiment with T-47D breast and in the experiment with NCI-H460 lung was more than 100 µM throughout.
Regarding `CC1=CC(c2ccccc2)OP1(=O)c1ccccc1` (stereo not given), the TGI in the experiment with 786-0 renal, with KM12 colon, in the experiment on OVCAR-3 ovarian, with K-562 leukemia, in the experiment with MCF7 breast and in the experiment with NCI-H23 lung was more than 100 µM each time. The TGI in the experiment on M14 melanoma, with MDA-N, with T-47D breast and in the experiment with NCI-H460 lung was more than 100 µM in each case.
In the case of `O=C(N=Nc1ccc([N+](=O)[O-])cc1)NNc1ccc([N+](=O)[O-])cc1`, the TGI in the experiment with 786-0 renal came out at 27 µM; in the experiment with OVCAR-3 ovarian, 59.2 µM; in the experiment with K-562 leukemia it was 45.8 µM; in the experiment on MCF7 breast, 22.9 µM; with NCI-H23 lung, 44.7 µM; in the experiment on M14 melanoma it was 31 µM. Also, the TGI in the experiment with MDA-N amounted to 32.3 µM; in the experiment with T-47D breast, 25.2 µM; with NCI-H460 lung, 47.2 µM; in the experiment with RPMI-8226 leukemia it was 58.2 µM.
For the compound `c1ccc(Cc2cccc3cc(-c4ccc(-c5ccccc5)cc4)[nH]c23)cc1`, the TGI in the experiment on 786-0 renal, in the experiment with KM12 colon, in the experiment with OVCAR-3 ovarian, in the experiment on MCF7 breast, with NCI-H23 lung and in the experiment on M14 melanoma was more than 100 µM each time. The TGI with MDA-N, in the experiment with T-47D breast, in the experiment with NCI-H460 lung and in the experiment on RPMI-8226 leukemia was more than 100 µM each time.
On to `COC1/C=C/C(C)C(OC)CC(O)/C=C/C(C)C(C(C)C(OC)C(C)CCC(=O)C(C)C(C/C=C/N(C)C=O)OC)OC(=O)/C=C/C=C(\C)CC(OC)C(OC)C2=CC(=O)O[C@@H](C(C)C(OC)C1)[C@H]2O` (stereo not given in full), for which the TGI in the experiment on 786-0 renal came out at 0.113 µM; in the experiment on OVCAR-3 ovarian, 0.0489 µM; in the experiment on MCF7 breast, 0.17 µM; in the experiment on NCI-H23 lung, 0.151 µM; with M14 melanoma, 0.0849 µM; in the experiment with MDA-N, 0.159 µM. Besides, the results for the TGI with T-47D breast, with NCI-H460 lung and with RPMI-8226 leukemia were 0.151 µM, 0.188 µM and 3.24 µM, respectively.
In the case of `NC(=O)c1cnc2sc3ccccc3n2c1=O`, the TGI in the experiment on 786-0 renal, in the experiment with KM12 colon, in the experiment on OVCAR-3 ovarian, with K-562 leukemia, in the experiment on MCF7 breast and in the experiment with M14 melanoma was more than 100 µM in each case. For the same compound, the TGI in the experiment with MDA-N, in the experiment on T-47D breast, with NCI-H460 lung and with RPMI-8226 leukemia was more than 100 µM each time.
